Reference: PubChem BioAssay (NCI)
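Cells were grown in 96-well plates and exposed to each compound for 48 hours at five concentrations; endpoints were interpolated linearly between bracketing concentrations, or set to the highest concentration if not reached. Here, GI50 denotes the concentration required for 50% inhibition of growth. TGI denotes the concentration required for complete inhibition of growth.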

Assays:
Assay in all cases: DTP human tumour cell line panel, 48 h
786-0 renal = tested on: 786-0 renal
DU-145 prostate = tested on: DU-145 prostate
HCT-116 colon = tested on: HCT-116 colon
HCT-15 colon = tested on: HCT-15 colon
HOP-92 NSCLC = tested on: HOP-92 NSCLC
KM12 colon = tested on: KM12 colon
NCI-H226 lung = tested on: NCI-H226 lung
NCI-H23 lung = tested on: NCI-H23 lung
SK-MEL-28 melanoma = tested on: SK-MEL-28 melanoma
UO-31 renal = tested on: UO-31 renal
CCRF-CEM leukemia = tested on: CCRF-CEM leukemia

SMILES	TGI (786-0 renal)	TGI (DU-145 prostate)	TGI (HCT-116 colon)	TGI (HCT-15 colon)	TGI (HOP-92 NSCLC)	TGI (KM12 colon)	TGI (NCI-H226 lung)	TGI (NCI-H23 lung)	TGI (SK-MEL-28 melanoma)	TGI (UO-31 renal)	TGI (CCRF-CEM leukemia)	GI50 (CCRF-CEM leukemia)	GI50 (DU-145 prostate)	GI50 (HCT-116 colon)	GI50 (HCT-15 colon)	GI50 (KM12 colon)	GI50 (NCI-H226 lung)	GI50 (NCI-H23 lung)	GI50 (SK-MEL-28 melanoma)	GI50 (UO-31 renal)
O=S(=O)(O)c1cc(O)c2c(O)c(N=Nc3cccc4ccccc34)c(S(=O)(=O)O)cc2c1	> 100 µM	> 100 µM	> 100 µM	> 100 µM	> 100 µM	> 100 µM	> 100 µM	> 100 µM	> 100 µM	> 100 µM	–	–	–	–	–	–	–	–	–	–
CC(C)(C)OC(=O)NCC(=O)NC1C/C(=N\O)c2sccc21 (configuration not stated)	–	> 100 µM	> 100 µM	> 100 µM	–	–	> 100 µM	> 100 µM	> 100 µM	> 100 µM	> 100 µM	–	–	–	–	–	–	–	–	–
CC(=O)c1ccc(N2CCN(C3=CC(=O)c4c(O)ccc(O)c4C3=O)CC2)cc1	> 100 µM	> 100 µM	> 100 µM	55.6 µM	79.2 µM	> 100 µM	–	> 100 µM	> 100 µM	35.5 µM	> 100 µM	–	–	–	–	–	–	–	–	–
O=C1NC2CCCCC2N=C1/C(C(=O)c1ccccc1)=C(\O)c1ccccc1 (configuration not stated)	> 100 µM	> 100 µM	> 100 µM	> 100 µM	–	> 100 µM	46.8 µM	> 100 µM	> 100 µM	78.7 µM	84.7 µM	–	–	–	–	–	–	–	–	–
CCCCc1ccc(-n2sc3ncccc3c2=O)cc1	25.2 µM	> 100 µM	26.3 µM	19.9 µM	–	32.5 µM	64.2 µM	41.9 µM	33.1 µM	34.7 µM	–	–	–	–	–	–	–	–	–	–
CN1Cc2c(nc(-c3ccc(Br)cc3)c[n+]2[O-])N(C)C1	> 100 µM	–	> 100 µM	–	> 100 µM	> 100 µM	> 100 µM	> 100 µM	> 100 µM	> 100 µM	> 100 µM	–	–	–	–	–	–	–	–	–
COc1cc(OC)cc(-c2n/c(=C\c3c(O)[nH]c4ccc(Cl)cc34)cc3c2=Nc2ccccc2-3)c1	–	6.88 µM	3.43 µM	27.7 µM	–	14.1 µM	59.8 µM	6.06 µM	> 100 µM	29.2 µM	> 100 µM	3.34 µM	2.91 µM	1.9 µM	6.58 µM	3.95 µM	22.8 µM	2.34 µM	29.3 µM	12.5 µM
COc1ccc2c(c1)CC1Cc3ccccc3CCN1C2 (configuration not stated)	–	> 100 µM	> 100 µM	> 100 µM	> 100 µM	> 100 µM	> 100 µM	> 100 µM	> 100 µM	> 100 µM	> 100 µM	–	–	–	–	–	–	–	–	–
CNC(=S)N/N=C(\C)c1nc2ncccc2[nH]1	> 100 µM	> 100 µM	> 100 µM	> 100 µM	> 100 µM	> 100 µM	> 90.9 µM	–	> 100 µM	40.6 µM	> 100 µM	–	–	–	–	–	–	–	–	–
COc1cc(/C=N\NC(=O)C[N+](C)(C)C)cc(OC)c1OC	> 10 µM	> 10 µM	> 10 µM	> 10 µM	> 10 µM	> 10 µM	–	> 10 µM	> 10 µM	–	> 10 µM	–	–	–	–	–	–	–	–	–
O/N=C1/C2CC3CC1(c1ccccc1)CC(/C3=N/O)/C2=N\O (configuration not stated)	> 100 µM	> 100 µM	> 100 µM	> 100 µM	–	> 100 µM	> 100 µM	> 100 µM	> 100 µM	> 100 µM	> 100 µM	–	–	–	–	–	–	–	–	–
COc1cc(OC)cc(-n2c(N)c(-c3nc4ccccc4n3C)c3ccc([N+](=O)[O-])cc3c2=O)c1	> 100 µM	> 100 µM	> 100 µM	> 100 µM	68 µM	> 100 µM	> 100 µM	> 100 µM	> 100 µM	> 100 µM	–	–	–	–	–	–	–	–	–	–
C/C=C/[C@H]1O[C@@](O)([C@@H](C)[C@H](O)[C@H](C)[C@H]2OC(=O)/C(OC)=C/C(C)=C/[C@@H](C)[C@@H](O)[C@@H](CC)[C@@H](O)[C@H](C)C/C(C)=C/C=C/[C@@H]2OC)C[C@H](OC2CC(O)C(OC(N)=O)C(C)O2)[C@@H]1C (some centres not stated)	15.7 µM	21.6 µM	14 µM	12.6 µM	2.4 µM	17.4 µM	–	26.7 µM	20.4 µM	–	0.723 µM	–	–	–	–	–	–	–	–	–
COC(=O)C1=C(C)N(NC(=O)c2ccccc2)C2(O)CCCC(=O)C12C (configuration not stated)	–	–	> 100 µM	> 100 µM	> 100 µM	> 100 µM	> 100 µM	> 100 µM	> 100 µM	> 100 µM	–	–	–	–	–	–	–	–	–	–
O=C1c2ccccc2-c2nc(-c3ccccc3)cc3c2c1nc1ccccc13	> 100 µM	29.6 µM	36.5 µM	28.5 µM	–	50.3 µM	54.5 µM	16.1 µM	22.9 µM	84.1 µM	28.2 µM	–	–	–	–	–	–	–	–	–
COc1ccc2c(c1OC)C(=O)O[C@@H]2[C@H]1c2cc3c(cc2CCN1C)OCO3	> 100 µM	> 100 µM	> 100 µM	> 100 µM	> 100 µM	> 100 µM	> 100 µM	> 100 µM	–	> 100 µM	–	–	–	–	–	–	–	–	–	–
N#CC1(c2ccccc2)CCN(C2(c3ccccc3)CCCCC2)CC1	> 100 µM	> 100 µM	> 100 µM	> 100 µM	–	> 100 µM	> 100 µM	> 100 µM	> 100 µM	> 100 µM	> 100 µM	–	–	–	–	–	–	–	–	–
O=c1[nH]c2cc3cccnc3c(Cl)c2nc1CBr	25.2 µM	30.4 µM	25.8 µM	9.94 µM	35.2 µM	33.3 µM	56.1 µM	32.2 µM	–	23.6 µM	31.1 µM	–	–	–	–	–	–	–	–	–
COc1cc2c(cc1C)NC(=O)/C2=C\c1ccncc1	18.8 µM	53.6 µM	5.09 µM	16 µM	> 100 µM	12.5 µM	–	9.28 µM	84.3 µM	18.3 µM	> 100 µM	–	–	–	–	–	–	–	–	–
Cc1ccc(S(=O)(=O)c2ccc([N+](=O)[O-])o2)cc1	3.26 µM	8.58 µM	3.94 µM	2.83 µM	4.32 µM	–	31.5 µM	13 µM	3.81 µM	2.78 µM	1.21 µM	–	–	–	–	–	–	–	–	–
CN(/N=N/c1nc[nH]c1C(N)=O)C1CCCCC1	–	–	> 100 µM	> 100 µM	> 100 µM	> 100 µM	> 100 µM	> 100 µM	> 100 µM	–	> 100 µM	–	–	–	–	–	–	–	–	–
